pEC50: −log10 of the molar value. Square brackets hold non-standard residues; d marks the D form. Side chains are listed from the residue outwards. Peptide text beside a SMILES is read from it. * marks the point of attachment. X3 = NCCCC[C@@H](NC(=O)[C@@H](CCCCN)NC(=O)C1(N)CCN(*)CC1)C(=O)O; X21 = NCCCC[C@H](NC(=O)[C@H](CCCCN)NC(=O)C1(N)CCN(*)CC1)C(N)=O; X12 = CCOc1ccc(C[C@@H](NC(=O)[C@H](N)Cc2ccccc2)C(=O)*)cc1; Piperidin1yl(4-NH2,4-COOH) = NC1(C(=O)O)CCN(*)CC1; X10 = NCCCC[C@@H](NC(=O)C1(N)CCN(*)CC1)C(=O)O; X4 = NCCCC[C@H](NC(=O)C1(N)CCN(*)CC1)C(=O)O; Trifluoroethyl = FC(F)(F)C*; Api = NC1(C(=O)O)CCNCC1; iPr = CC(C)*
Target: T1, human κ opioid receptor (OPRK1) (Homo sapiens, UniProt P41145)
T1 construct: expressed in transfected cells; host or cells: CHO-K1
Assay: Determination of activities of κ receptor agonists: inhibition of forskolin-stimulated cAMP release (HTRF) in stably transfected CHO-K1 cells
Type: cell-based
Conditions: for Relative Activity %: relative to Difelikefalin = 100.0
Text: Gi-coupled human κ opioid receptor (OPRK1), upon stimulation with its specific opioid receptor agonists, can inhibit the intracellular adenylate cyclase pathway, and decrease cAMP levels. Forskolin can stimulate cAMP release in cell lines highly expressing opioid receptors. By stimulating cell lines stably transfected with opioid receptors, the inhibitory effect of a test compound on forskolin-stimulated cAMP release can be measured to determine the activity of the compound. The relative light units (RLU) from the cells after stimulation with different doses were measured via the homogeneous time-resolved fluorescence technique (HTRF), and the EC50 value of the agonist was subsequently calculated. This activity determination method is a currently commonly used method for determining the activities of opioid receptor agonists at home and abroad.
A CHO-K1 cell line stably expressing opioid receptors was used. Stably transfected cells were stimulated with various concentrations of agonists (under the stimulation of a certain concentration of forskolin). The relative light units from the cells after stimulation with different doses were measured, from which the EC50 value of the agonist was subsequently obtained by calculation.

T1 sequence (P41145 whole entry): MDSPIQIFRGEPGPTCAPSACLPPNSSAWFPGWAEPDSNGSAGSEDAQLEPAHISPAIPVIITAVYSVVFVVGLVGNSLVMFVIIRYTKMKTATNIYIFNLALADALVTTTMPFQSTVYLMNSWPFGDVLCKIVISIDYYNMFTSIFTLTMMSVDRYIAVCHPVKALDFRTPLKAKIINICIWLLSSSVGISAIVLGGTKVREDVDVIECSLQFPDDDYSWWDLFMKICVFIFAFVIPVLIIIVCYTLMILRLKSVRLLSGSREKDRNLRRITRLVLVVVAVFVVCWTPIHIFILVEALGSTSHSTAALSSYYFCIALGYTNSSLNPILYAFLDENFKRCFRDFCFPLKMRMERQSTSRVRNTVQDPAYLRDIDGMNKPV

| SMILES | pEC50 | Relative Activity % [%] |
| --- | --- | --- |
| CCOc1ccc(C[C@@H](NC(=O)[C@H](N)Cc2ccccc2)C(=O)N[C@H](CC(C)C)C(=O)N[C@H](CCCCN)C(=O)N2CCC(N)(C(=O)N[C@@H](CCCCN)C(=O)N[C@@H](CCCCN)C(=O)N[C@@H](CCCCN)C(=O)N[C@@H](CCCCN)C(=O)O)CC2)cc1 [Compound 10, D-Phe-D-Tyr(Et)-D-Leu-D-Lys-4-aminopiperidine-4-carboxamide-Lys-Lys-Lys-Lys-OH] (H-[Api]([dK-dL-X12])KKKK-OH; N-terminus assumed) | 10.33 | 1311.4 |
| CCOc1ccc(C[C@@H](NC(=O)[C@H](N)Cc2ccccc2)C(=O)N[C@H](CC(C)C)C(=O)N[C@H](CCCCN)C(=O)N2CCC(N)(C(=O)N[C@H](CCCCN)C(=O)N[C@H](CCCCN)C(=O)O)CC2)cc1 [Compound 18, D-Phe-D-Tyr(Et)-D-Leu-D-Lys-4-aminopiperidine-4-carboxamide-D-Lys-D-Lys-OH] (H-[dF][dY](Et)[dL][dK]-X3; N-terminus assumed) | 10.34 | 1320.0 |
| CC(C)C[C@@H](NC(=O)[C@@H](Cc1ccc(Cl)cc1)NC(=O)[C@H](N)Cc1ccccc1)C(=O)N[C@H](CCCCN)C(=O)N1CCC(N)(C(=O)N[C@@H](CCCCN)C(N)=O)CC1 [Compound 111, D-Phe-D-Phe(4-C1)-D-Leu-D-Lys-4-aminopiperidine-4-carboxamide-Lys-NH2] | 10.28 | 1165.5 |
| CC(C)C[C@@H](NC(=O)[C@@H](Cc1ccc(OC(C)C)cc1)NC(=O)[C@H](N)Cc1ccccc1)C(=O)N[C@H](CCCCN)C(=O)N1CCC(N)(C(=O)N[C@H](CCCCN)C(=O)O)CC1 [Compound 102, D-Phe-D-Tyr(Ipr)-D-Leu-D-Lys-4-aminopiperidine-4-carboxamide-D-Lys-OH] (H-[dF][dY](iPr)[dL][dK]-X10; N-terminus assumed) | 10.14 | 831.8 |
| CCOc1ccc(C[C@@H](NC(=O)[C@H](N)Cc2ccccc2)C(=O)N[C@H](CC(C)C)C(=O)N[C@H](CCCCN)C(=O)N2CCC(N)(C(=O)NCC(=O)NCC(=O)NCC(=O)N[C@H](CCCCN)C(N)=O)CC2)cc1 [Compound 57, D-Phe-D-Tyr(Et)-D-Leu-D-Lys-4-aminopiperidine-4-carboxamide-Gly-Gly-Gly-D-Lys-NH2] (H-[Api]([dK-dL-X12])GGG[dK]-NH2; N-terminus assumed) | 10.29 | 1181.3 |
| CCOc1ccc(C[C@@H](NC(=O)[C@H](N)Cc2ccccc2)C(=O)N[C@H](CC(C)C)C(=O)N[C@H](CCCCN)C(=O)N2CCC(N)(C(=O)N[C@@H](CCCCN)C(=O)N[C@@H](CCCCN)C(N)=O)CC2)cc1 [Compound 5, D-Phe-D-Tyr(Et)-D-Leu-D-Lys-4-aminopiperidine-4-carboxamide-Lys-Lys-NH2] (H-[dF][dY](Et)[dL][dK]-X21; N-terminus assumed) | 10.39 | 1481.0 |
| CCOc1ccc(C[C@@H](NC(=O)[C@H](N)Cc2ccccc2)C(=O)N[C@H](CC(C)C)C(=O)N[C@H](CCCCN)C(=O)N2CCC(N)(C(=O)NCC(=O)NCC(=O)NCC(=O)NCC(=O)NCC(=O)N[C@H](CCCCN)C(N)=O)CC2)cc1 [Compound 65, D-Phe-D-Tyr(Et)-D-Leu-D-Lys-4-aminopiperidine-4-carboxamide-Gly-Gly-Gly-Gly-Gly-D-Lys-NH2] (H-[Api]([dK-dL-X12])GGGGG[dK]-NH2; N-terminus assumed) | 10.05 | 686.9 |
| CCOc1ccc(C[C@@H](NC(=O)[C@H](N)Cc2ccccc2)C(=O)N[C@H](CC(C)C)C(=O)N[C@H](CCCCN)C(=O)N2CCC(N)(C(=O)NCC(=O)NCC(=O)NCC(=O)NCC(=O)N[C@H](CCCCN)C(N)=O)CC2)cc1 [Compound 61, D-Phe-D-Tyr(Et)-D-Leu-D-Lys-4-aminopiperidine-4-carboxamide-Gly-Gly-Gly-Gly-D-Lys-NH2] (H-[Api]([dK-dL-X12])GGGG[dK]-NH2; N-terminus assumed) | 10.15 | 860.1 |
| CC(C)C[C@@H](NC(=O)[C@@H](Cc1ccc(Br)cc1)NC(=O)[C@H](N)Cc1ccccc1)C(=O)N[C@H](CCCCN)C(=O)N1CCC(N)(C(=O)O)CC1 [Compound 116, D-Phe-D-Phe(4-Br)-D-Leu-D-Lys-4-aminopiperidine-4-carboxamide-OH] | 9.87 | 448.1 |
| CC(C)C[C@@H](NC(=O)[C@@H](Cc1ccc(F)cc1)NC(=O)[C@H](N)Cc1ccccc1)C(=O)N[C@H](CCCCN)C(=O)N1CCC(N)(C(=O)O)CC1 [Compound 104, D-Phe-D-Phe(4-F)-D-Leu-D-Lys-4-aminopiperidine-4-carboxamide-OH] | 9.67 | 281.9 |
| CCOc1ccc(C[C@@H](NC(=O)[C@H](N)Cc2ccccc2)C(=O)N[C@H](CC(C)C)C(=O)N[C@H](CCCCN)C(=O)N2CCC(N)(C(=O)NCC(=O)NCC(=O)NCC(=O)NCC(=O)N[C@@H](CCCCN)C(N)=O)CC2)cc1 [Compound 59, D-Phe-D-Tyr(Et)-D-Leu-D-Lys-4-aminopiperidine-4-carboxamide-Gly-Gly-Gly-Gly-Lys-NH2] (H-[Api]([dK-dL-X12])GGGGK-NH2; N-terminus assumed) | 10.16 | 874.9 |
| CC(C)C[C@@H](NC(=O)[C@@H](Cc1ccc(OC(C)C)cc1)NC(=O)[C@H](N)Cc1ccccc1)C(=O)N[C@H](CCCCN)C(=O)N1CCC(N)(C(=O)N[C@@H](CCCCN)C(=O)O)CC1 [Compound 100, D-Phe-D-Tyr(Ipr)-D-Leu-D-Lys-4-aminopiperidine-4-carboxamide-Lys-OH] (H-[dF][dY](iPr)[dL][dK]-X4; N-terminus assumed) | 10.15 | 848.0 |
| CC(C)C[C@@H](NC(=O)[C@@H](Cc1ccc(OCC(F)(F)F)cc1)NC(=O)[C@H](N)Cc1ccccc1)C(=O)N[C@H](CCCCN)C(=O)N1CCC(N)(C(=O)O)CC1 [Compound 92, D-Phe-D-Tyr(CH2CF3)-D-Leu-D-Lys-4-aminopiperidine-4-carboxamide-OH] (H-[dF][dY](Trifluoroethyl)[dL][dK]-{Piperidin1yl(4-NH2,4-COOH)}; N-terminus assumed) | 9.96 | 558.6 |
| CCc1ccc(C[C@@H](NC(=O)[C@H](N)Cc2ccccc2)C(=O)N[C@H](CC(C)C)C(=O)N[C@H](CCCCN)C(=O)N2CCC(N)(C(=O)N[C@@H](CCCCN)C(=O)O)CC2)cc1 [Compound 132, D-Phe-D-Phe(4-Et)-D-Leu-D-Lys-4-aminopiperidine-4-carboxamide-Lys-OH] | 9.88 | 465.6 |
| CC(C)C[C@@H](NC(=O)[C@@H](Cc1ccc(Br)cc1)NC(=O)[C@H](N)Cc1ccccc1)C(=O)N[C@H](CCCCN)C(=O)N1CCC(N)(C(=O)N[C@@H](CCCCN)C(=O)O)CC1 [Compound 118, D-Phe-D-Phe(4-Br)-D-Leu-D-Lys-4-aminopiperidine-4-carboxamide-Lys-OH] | 10.20 | 951.7 |
| CCOc1ccc(C[C@@H](NC(=O)[C@H](N)Cc2ccccc2)C(=O)N[C@H](CC(C)C)C(=O)N[C@H](CCCCN)C(=O)N2CCC(N)(C(=O)NCC(=O)NCC(=O)NCC(=O)NCC(=O)NCC(=O)N[C@H](CCCCN)C(=O)O)CC2)cc1 [Compound 66, D-Phe-D-Tyr(Et)-D-Leu-D-Lys-4-aminopiperidine-4-carboxamide-Gly-Gly-Gly-Gly-Gly-D-Lys-OH] (H-[Api]([dK-dL-X12])GGGGG[dK]-OH; N-terminus assumed) | 10.05 | 678.4 |
